The results in this text go back to US20240140980A1, “HETEROCYCLIC INHIBITORS OF CD73 FOR TREATMENT OF DISEASE” (Teon Therapeutics, Inc., priority 2022, published 2024).

Experiment [1] deals with T1, CD73 (Homo sapiens (Human), UniProt P21589). In words: Cellular CD73 Assay (primary human CD3+ T-cells with AMP). Format: cell-based. The settings on record: primary human peripheral blood CD3+ T-cells, 40 μM AMP, 3 days; readout (cell division or IL-2/IFN-γ) not specified for the column. The procedure: Primary human peripheral blood CD3+ T-cells obtained from AllCells were thawed and cultured for 24 h in a complete growth medium (Stemline T-cell expansion medium, Sigma #S1694) supplemented with 1 mM L-glutamine, 50 IU/mL of IL-2 and 25 μL/mL of Dynabeads™ Human T-Activator CD3/CD28 (Thermo-Fisher #11161D) at a density of 10^6 cells/mL. Then, cells were labeled with 1.25 μM Cell Trace Violet (Thermo-Fisher #C34557) according to the manufacturer's instructions. Labeled cells were resuspended in a warm complete growth medium and plated onto U-bottom 96-well plates at 25,000 cells/90 μL/well. Next, 500× serial compound dilutions were prepared in DMSO in a 8-point 3-fold titration and then diluted 1:25 into a complete growth medium, generating 20× compound dilutions. Then, 5 μL of 20× compound dilutions was added to the cells and incubated for 60 min at 37° C. After this, 5 μL of 20×AMP was added to a final concentration of 40 μM. Treated cells were cultured for 3 days at 37° C., 5% CO2. Thereafter, cells were gently pelleted by centrifugation, and supernatants were collected and frozen at −80° C. for subsequent cytokine analysis. Cell pellets were resuspended in 100 μL of PBS/2% FBS and gently pipetted up and down to produce a single cell suspension. Then, 3 μL of 7-AAD (BD Biosciences #559925) was added to each well and plates were incubated on ice for 5 min. Cells were then washed and resuspended in 150 μL of PBS/2% FBS. Divided and non-divided live cells were quantified by Attune NxT flow cytometer. Cell Trace Violet-labeled cells cultured without a T-cell activator were used as the nondividing control.
For IL-2 and IFN-γ cytokine analysis, supernatants were thawed on ice, diluted 1:10 in the buffer. The concentration of cytokines was determined using Meso Scale Discovery according to the manufacturer's instructions (Meso Scale Discovery). The EC50 values were determined using a four-parameter nonlinear regression curve fit (GraphPad Prism Version 9.2, GraphPad Software Inc., San Diego, CA).

For experiment [2], the target named is T1, CD73. In words: Biochemical CD73 Assay (Malachite Green free phosphate detection). The conditions noted are these: recombinant human CD73 2 nM, AMP 40 μM, 45 min at 37° C. The procedure:
Activity of recombinant CD73 was measured by quantification of free phosphate using the Malachite Green detection system (R&D Systems #DY996). Test compounds were solubilized in DMSO and dispensed into 384-well polystyrene plates in a 8-point 3× titration in duplicates. Then, 10 μL of 4 nM human CD73 enzyme (Novoprotein #C446) in phosphate-free assay buffer (10 mM HEPES, pH 7.4, 125 mM NaCl, 1 mM KCl, 10 mM glucose, 2 mM MgCl2) was added to the plates. The compound and enzyme were incubated for 15 min at RT. Then, 10 μL of 80 μM AMP (Sigma Aldrich #A1752) in the assay buffer was added and the reaction mixture was incubated for 45 min at 37° C. The final concentrations of CD73 and AMP in the reaction were 2 nM and 40 μM, respectively. The reaction was stopped by adding 5 μL of Malachite Green reagent A and incubating for 10 min at RT, followed by addition of 5 μL of Malachite Green reagent B and incubation for 20 min at RT. Absorbance was then read at 620 nm with the Flexstation spectrophotometer (Molecular Devices). The IC50 values were determined using a four-parameter nonlinear regression curve fit.

Molecules are shown by their SMILES. pEC50, pIC50: −log10 of the molar value.

T1 sequence (P21589 27-574): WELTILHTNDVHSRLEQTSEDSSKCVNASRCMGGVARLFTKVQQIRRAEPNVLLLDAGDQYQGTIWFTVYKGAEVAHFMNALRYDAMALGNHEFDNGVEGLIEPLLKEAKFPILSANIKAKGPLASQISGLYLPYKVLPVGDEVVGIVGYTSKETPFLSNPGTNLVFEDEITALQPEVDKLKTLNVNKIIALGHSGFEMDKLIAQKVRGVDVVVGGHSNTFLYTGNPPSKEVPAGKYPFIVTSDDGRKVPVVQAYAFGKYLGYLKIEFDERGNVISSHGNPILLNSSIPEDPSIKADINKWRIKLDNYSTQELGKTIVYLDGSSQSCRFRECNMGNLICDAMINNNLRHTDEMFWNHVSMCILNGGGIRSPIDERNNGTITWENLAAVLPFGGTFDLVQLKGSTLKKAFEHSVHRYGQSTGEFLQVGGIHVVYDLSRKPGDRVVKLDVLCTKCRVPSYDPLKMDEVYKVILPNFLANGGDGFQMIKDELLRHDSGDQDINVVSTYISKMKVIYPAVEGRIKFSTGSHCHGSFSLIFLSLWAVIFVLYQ

In experiment [1], `COC[C@@](OC[C@H]1O[C@@H](n2ncc3c(NC4CCCC4)nc(Cl)nc32)[C@H](O)[C@@H]1O)(C(=O)N=[S@@](C)(N)=O)P(=O)(O)O` [Example 3, ((2S)-1-((Amino(methyl)(oxo)-λ^6-sulfaneylidene)amino)-2-(((2R,3S,4R,5R)-5-(6-chloro-4-(cyclopentylamino)-1H-pyrazolo[3,4-d]pyrimidin-1-yl)-3,4-dihydroxytetrahydrofuran-2-yl)methoxy)-3-methoxy-1-oxopropan-2-yl)phosphonic Acid] had a pEC50 of 8.82. Moreover, the pIC50 in experiment [2] is 9.00.

For the molecule `CCC(=O)NS(C)(=O)=NC(=O)[C@@](COC)(OC[C@H]1O[C@@H](n2ncc3c(NC4CCCC4)nc(Cl)nc32)[C@H](O)[C@@H]1O)P(=O)(O)O` (stereo partly drawn) [Example 14, ((2S)-2-(((2R,3S,4R,5R)-5-(6-Chloro-4-(cyclopentylamino)-1H-pyrazolo[3,4-d]pyrimidin-1-yl)-3,4-dihydroxytetrahydrofuran-2-yl)methoxy)-3-methoxy-1-((methyl(oxo)(propionamido)-λ^6-sulfaneylidene)amino)-1-oxopropan-2-yl)phosphonic Acid], the pEC50 in experiment [1] is 8.94. Moreover, the pIC50 in experiment [2] was 9.13.

In experiment [1], `COC[C@@](OC[C@H]1O[C@@H](n2ncc3c(NC4CCCC4)nc(Cl)nc32)[C@H](O)[C@@H]1O)(C(=O)N=[S@](C)(=O)NC(=O)OC)P(=O)(O)O` [Example 18, ((S)-2-(((2R,3S,4R,5R)-5-(6-Chloro-4-(cyclopentylamino)-1H-pyrazolo[3,4-d]pyrimidin-1-yl)-3,4-dihydroxytetrahydrofuran-2-yl)methoxy)-3-methoxy-1-(((S)-((methoxycarbonyl)amino)(methyl)(oxo)-λ^6-sulfaneylidene)amino)-1-oxopropan-2-yl)phosphonic Acid] had a pEC50 of 9.00. Further, in experiment [2], the pIC50 is 9.30.

Molecule `COC[C@@](OC[C@H]1O[C@@H](n2ncc3c(NC4CCCC4)nc(Cl)nc32)[C@H](O)[C@@H]1O)(C(=O)N=[S@@](C)(=O)NC(=O)C1CC1)P(=O)(O)O` [Example 11, ((S)-2-(((2R,3S,4R,5R)-5-(6-Chloro-4-(cyclopentylamino)-1H-pyrazolo[3,4-d]pyrimidin-1-yl)-3,4-dihydroxytetrahydrofuran-2-yl)methoxy)-1-(((R)-cyclopropanecarboxamido(methyl)(oxo)-λ^6-sulfaneylidene)amino)-3-methoxy-1-oxopropan-2-yl)phosphonic Acid] gave a pEC50 in experiment [1] of 9.05. Moreover, the pIC50 in experiment [2] was 9.11.

Consider `CCC(=O)NS(C)(=O)=NC(=O)[C@@](COC)(OC[C@H]1O[C@@H](n2ncc3c(NC4CCCC4)nc(Cl)nc32)[C@H](O)[C@@H]1O)P(=O)(O)O` (stereo partly drawn) [Example 13, ((2S)-2-(((2R,3S,4R,5R)-5-(6-Chloro-4-(cyclopentylamino)-1H-pyrazolo[3,4-d]pyrimidin-1-yl)-3,4-dihydroxytetrahydrofuran-2-yl)methoxy)-3-methoxy-1-((methyl(oxo)(propionamido)-λ^6-sulfaneylidene)amino)-1-oxopropan-2-yl)phosphonic Acid], for which, in experiment [1], the negative-log EC50 (pEC50) is 9.17. For the same molecule, the pIC50 in experiment [2] was 9.15.

With `CNC(=O)N[S@](C)(=O)=NC(=O)[C@@](COC)(OC[C@H]1O[C@@H](n2ncc3c(NC4CCCC4)nc(Cl)nc32)[C@H](O)[C@@H]1O)P(=O)(O)O` [Example 9, ((S)-2-(((2R,3S,4R,5R)-5-(6-Chloro-4-(cyclopentylamino)-1H-pyrazolo[3,4-d]pyrimidin-1-yl)-3,4-dihydroxytetrahydrofuran-2-yl)methoxy)-3-methoxy-1-(((R)-methyl(3-methylureido)(oxo)-λ^6-sulfaneylidene)amino)-1-oxopropan-2-yl)phosphonic Acid], the pEC50 in experiment [1] is 8.80. Also, in experiment [2], the pIC50 was 9.05.

In experiment [1], `COC[C@@](OC[C@H]1O[C@@H](n2ncc3c(NC4CCCC4)nc(Cl)nc32)[C@H](O)[C@@H]1O)(C(=O)N=[S@](C)(N)=O)P(=O)(O)O` [Example 1, ((2S)-1-((Amino(methyl)(oxo)-λ^6-sulfaneylidene)amino)-2-(((2R,3S,4R,5R)-5-(6-chloro-4-(cyclopentylamino)-1H-pyrazolo[3,4-d]pyrimidin-1-yl)-3,4-dihydroxytetrahydrofuran-2-yl)methoxy)-3-methoxy-1-oxopropan-2-yl)phosphonic Acid] had a pEC50 of 9.29. Also, in experiment [2], the pIC50 is 9.03.

With `COC[C@@](OC[C@H]1O[C@@H](n2ncc3c(NC4CCCC4)nc(Cl)nc32)[C@H](O)[C@@H]1O)(C(=O)N=[S@](C)(=O)NC(C)=O)P(=O)(O)O` [Example 17, ((S)-1-(((S)-Acetamido(methyl)(oxo)-λ^6-sulfaneylidene)amino)-2-(((2R,3S,4R,5R)-5-(6-chloro-4-(cyclopentylamino)-1H-pyrazolo[3,4-d]pyrimidin-1-yl)-3,4-dihydroxytetrahydrofuran-2-yl)methoxy)-3-methoxy-1-oxopropan-2-yl)phosphonic Acid], the pEC50 in experiment [1] was 9.01. Further, in experiment [2], the pIC50 is 9.24.

Regarding `COC[C@@](OC[C@H]1O[C@@H](n2ncc3c(NC4CCCC4)nc(Cl)nc32)[C@H](O)[C@@H]1O)(C(=O)N=S(C)(=O)NC(=O)C(C)C)P(=O)(O)O` (single isomer, unassigned) [Example 16], the pEC50 in experiment [1] is 8.87. The pIC50 in experiment [2] is 9.11.

`COC[C@@](OC[C@H]1O[C@@H](n2ncc3c(NC4CCCC4)nc(Cl)nc32)[C@H](O)[C@@H]1O)(C(=O)N=S(C)(=O)NC(=O)C(C)C)P(=O)(O)O` (single isomer, unassigned) [Example 15] showed a pEC50 in experiment [1] of 8.11. Also, the negative-log IC50 (pIC50) in experiment [2] is 8.20.

`CNC(=O)N[S@@](C)(=O)=NC(=O)[C@@](COC)(OC[C@H]1O[C@@H](n2ncc3c(NC4CCCC4)nc(Cl)nc32)[C@H](O)[C@@H]1O)P(=O)(O)O` [Example 10, ((S)-2-(((2R,3S,4R,5R)-5-(6-Chloro-4-(cyclopentylamino)-1H-pyrazolo[3,4-d]pyrimidin-1-yl)-3,4-dihydroxytetrahydrofuran-2-yl)methoxy)-3-methoxy-1-(((S)-methyl(3-methylureido)(oxo)-λ^6-sulfaneylidene)amino)-1-oxopropan-2-yl)phosphonic Acid] had a pEC50 in experiment [1] of 9.14. Moreover, the negative logarithm of the IC50 (pIC50) in experiment [2] was 9.51.

Regarding `COC[C@@](OC[C@H]1O[C@@H](n2ncc3c(NC4CCCC4)nc(Cl)nc32)[C@H](O)[C@@H]1O)(C(=O)N=[S@](C)(=O)NC(=O)C1CC1)P(=O)(O)O` [Example 12, ((S)-2-(((2R,3S,4R,5R)-5-(6-Chloro-4-(cyclopentylamino)-1H-pyrazolo[3,4-d]pyrimidin-1-yl)-3,4-dihydroxytetrahydrofuran-2-yl)methoxy)-1-(((S)-cyclopropanecarboxamido(methyl)(oxo)-λ^6-sulfaneylidene)amino)-3-methoxy-1-oxopropan-2-yl)phosphonic Acid], in experiment [1], the pEC50 is 9.04. Further, the pIC50 in experiment [2] is 9.35.
